Test [1] deals with Leishmania tropica. In words: Microscopy of Leishmania photolysis after PC sensitization and red light. The conditions noted are these: PC1/PC2: followed by red light; PC3/PC4: with or without red light. The test is classed as cell-based. The procedure:
(§1) Leishmania were suspended to 5×10^7-10^8 cells ml^−1 in HBSS-BSA for exposure to serial dilutions of PCs 1-4 in the dark overnight. Controls included cells exposed to diluent alone. J774 macrophages were treated as monolayer in HBSS-BSA or culture medium under otherwise the same conditions. All cultures were kept in the dark for various time periods up to 24 hrs.
Control and PC-sensitized Leishmania were washed and suspended in HBSS-BSA. The cell suspensions in 24-well culture plates and monolayers of J774 macrophages in 25 cm^2 TC flasks were exposed from the bottom to red light (wavelengths >650 nm) via a red filter (Smith-Victor Co., Barlett, Ill., USA; part #650021) over a light box for 20-30 min at a fluence of 1-2 J cm^2.
Nikon Eclipse 80i and TE2000-S microscopes with CCD cameras were used with Metamorphosis (version 6.1) or NIS Elements version AR 4.20.01 software for image capture and analysis. Concentrated cells (˜3 μl) on a glass slide under an 18 mm^2 glass coverslip were first scanned under phase contrast to localize cells. […] GFP/CFSE fluorescent Leishmania were further examined by using the FITC filter set. Images captured under different settings were merged by using the software programs mentioned. […]

The test system of test [2] is Leishmania tropica. Briefly: Leishmania uptake of PCs by fluorescence microscopy. The test is classed as cell-based. Particulars: fluorescent microscopy, Cy5 filter, exposure in the dark. The procedure:
as §1
Nikon Eclipse 80i and TE2000-S microscopes with CCD cameras were used with Metamorphosis (version 6.1) or NIS Elements version AR 4.20.01 software for image capture and analysis. Concentrated cells (˜3 μl) on a glass slide under an 18 mm^2 glass coverslip were first scanned under phase contrast to localize cells. […] GFP/CFSE fluorescent Leishmania were further examined by using the FITC filter set. Images captured under different settings were merged by using the software programs mentioned. The filter sets (Chroma Technology Co., Brattleboro, Vt.) used were: (1) HQ620/60 (620-nm exciter), Q660LP (660-nm dichroic), and HQ700/80 (700-nm emitter) for phthalocyanines; and (2) HQ480/40 (480-nm exciter), Q505LP (505-nm dichroic), and HQ535/50 (535-nm emitter) for GFP and CFSE.

In the case of “triethylene glycol substituted Zn(II)-phthalocyanine [PC4]”, the “motility and structural integrity after PC sensitization” value in test [1] is “retained their motility and cellular integrity”. Besides, the “uptake by Leishmania (PC fluorescence in cells)” value in test [2] is reported as “no uptake”.

The values are drawn from patent publication US20170042989A1, “PHOTOSENSITIZED TRYPANOSOMATIDS AND VACCINE COMPOSITIONS THEREOF” (ROSALIND FRANKLIN UNIVERSITY OF MEDICINE AND SCIENCE, priority 2015, published 2017).
